Legend:
[1] = test system: U138-MG human glioma cell; test: Cell proliferation analysis (MTT); assay type: cell-based; conditions: 10 µM, two days, MTT; for activity at 10 µM / inhibition at 10 µM: Homo sapiens, 48 h
Protocol: (§1) U87-MG and U138-MG human glioma cell, were incubated with 10% fetal bovine serum (FBS) (Gibco, 10500-064), 1% L-glutamine (Gibco, 25030-024), in a humidified incubator with 5% CO2 at 37 °C. The cells were contained in DMEM High Glucose (Gibco, 41966-029) supplemented with 1% penicillin-streptomycin (P/S) (Gibco 15140-122) solution. The cytotoxic effects of the target compounds on U87-MG and U138-MG cell lines were assessed using the MTT (Thiazolyl Blue Tetrazolium Bromide) method. 7×10^3 cells were seeded into a 96-well plate in 100 µl DMEM High Glucose 10% FBS and 1% P/S. 24 hours after cell incubation, each target compound was added at a dose of 10 µM and the drug treatment was carried out for two days. After the incubation period, 10 µL of MTT solution was added to each well (5 mg/ml in PBS). After 2 hours, MTT solutions were removed from the wells. Then, 100 µl DMSO was added, and mixed to dissolve the formazan crystals. Cell proliferation was analysed by measuring the absorbance of dissolved formazan at a wavelength of 570 nm.
(§2) IC50 values were determined using the same method as above wherein the cells were treated with the target compounds at different doses.

U87-MG human glioma cell = test: Cell proliferation analysis (MTT); assay type: cell-based; conditions: for activity at 10 µM / inhibition at 10 µM: Homo sapiens, U-87 MG, 48 h; for top 5 target compounds whose treatment resulted in the lowest proliferation: ranking
Protocol: as §1, §2

Row | Compound | activity at 10 µM [1] | inhibition at 10 µM [1] | activity at 10 µM (U87-MG human glioma cell; 10 µM, two days, MTT) | inhibition at 10 µM (U87-MG human glioma cell; 10 µM, two days, MTT) | Cell Proliferation (%) [1] | Cell Proliferation (%) (U87-MG human glioma cell; 10 µM, two days, MTT) | top 5 target compounds whose treatment resulted in the lowest proliferation (U87-MG human glioma cell)
1 | O=C1CCc2cc(OCc3cn(CCOCc4ccccc4)nn3)ccc2N1 [TR-G080, 6-((1-(2-(benzyloxy)ethyl)-1H-1,2,3-triazol-4-yl)methoxy)-3,4-dihydroquinolin-2(1H)-one] | 71% | 29% | 79% | 21% |  |  | 
2 | O=C1CCc2cc(OCc3cc(-c4ccc(Cl)cc4)no3)ccc2N1 [TR-G084, 6-((3-(4-chlorophenyl)isoxazol-5-yl)methxy)-3,4-dihydroquinolin-2(1H)-one] |  | 30% |  | 35% | 71% | 65% | 
3 | O=C(COc1ccc2c(c1)CCC(=O)N2)N/N=C/c1ccccn1 [TR-G059, (E)-2-((2-oxo-1,2,3,4-tetrahydroquinolin-6-yl)oxy)-N'-(pyridin-2-ylmethylene)acetohydrazide] | 81% | 20% | 79% | 21% |  |  | 
4 | C=CCN1C(=O)CCc2cc(OCCCCc3nnnn3C3CCCCC3)ccc21 [TR-G103, 1-allyl-6-(4-(1-cyclohexyl-1H-tetrazol-5-yl)butoxy)-3,4-dihydroquinolin-2(1H)-one] | 63% | 38% | 45% | 55% |  |  | top 5
5 | O=C1CCc2cc(OC(=O)Cc3ccccc3)ccc2N1 [TR-G007, 2-oxo-1,2,3,4-tetrahydroquinolin-6-yl 2-phenylacetate] | 82% | 18% | 91% | 9% |  |  | 
6 | O=C(COc1ccc2c(c1)CCC(=O)N2)N/N=C/c1cccc2ccccc12 [TR-G141, (E)-N'-(naphthalen-1-ylmethylene)-2-((2-oxo-1,2,3,4-tetrahydroquinolin-6-yl)oxy)acetohydrazide] | 65% | 35% | 53% | 47% |  |  | 
7 | O=C(COc1ccc2c(c1)CCC(=O)N2)N/N=C1\C(=O)Nc2ccc([N+](=O)[O-])cc21 [TR-G056, (Z)-N'-(5-nitro-2-oxoindolin-3-ylidene)-2-((2-oxo-1,2,3,4-tetrahydroquinolin-6-yl)oxy)acetohydrazide] | 83% | 17% | 99% | 1% |  |  | 
8 | O=C1CCc2cc(OCCCCc3nnnn3C3CCCCC3)ccc2N1CCCc1ccccc1 [TR-G106, 6-(4-(1-cyclohexyl-1H-tetrazol-5-yl)butoxy)-1-(3-phenylpropyl)-3,4-dihydroquinolin-2(1H)-one] | 66% | 35% | 73% | 27% |  |  | 
9 | O=C1CCc2cc(OCCCCCCOC3CCCCO3)ccc2N1 (centres unmarked) [TR-G031, 6-((6-((tetrahydro-2H-pyran-2-yl)oxy)hexyl)oxy)-3,4-dihydroquinolin-2(1H)-one] | 80% | 20% | 72% | 28% |  |  | 
10 | O=C(COc1ccc2c(c1)CCC(=O)N2)N/N=C/c1cccc(Oc2ccc(Cl)cc2)c1 [TR-G138, (E)-N'-(3-(4-chlorophenoxy)benzylidene)-2-((2-oxo-1,2,3,4-tetrahydroquinolin-6-yl)oxy)acetohydrazide] |  | 35% |  | 50% |  |  | 
11 | O=C1CCc2cc(OCc3cn(-c4cccc5[nH]ncc45)nn3)ccc2N1 [TR-G078, 6-((1-(1H-indazol-4-yl)-1H-1,2,3-triazol-4-yl)methoxy)-3,4-dihydroquinolin-2(1H)-one] | 57% | 43% | 44% | 56% |  |  | top 5
12 | CCCCCCn1cc(COc2ccc3c(c2)CCC(=O)N3)nn1 [TR-G125, 6-((1-hexyl-1H-1,2,3-triazol-4-yl)methoxy)-3,4-dihydroquinolin-2(1H)-one] | 82% | 18% | 64% | 36% |  |  | 
13 | CCCC(CCC)C(=O)Oc1ccc2c(c1)CCC(=O)N2 [TR-G062, 2-oxo-1,2,3,4-tetrahydroquinolin-6-yl 2-propylpentanoate] | 87% | 13% | 87% | 13% |  |  | 
14 | CC(C)N(C(=O)Oc1ccc2c(c1)CCC(=O)N2)C(C)C [TR-G129, 2-oxo-1,2,3,4-tetrahydroquinolin-6-yl diisopropylcarbamate] | 74% | 26% | 81% | 19% |  |  | 
